Reference: article PMC3050433, “The effects of maribavir on the autophosphorylation of ganciclovir resistant mutants of the cytomegalovirus UL97 protein” (Herpesviridae, 2010)
Where a chain is given by its changes, count along the chain named.

Legend:
Assay type in all cases: biochemical
[1] = target: T1, UL97 M460I (Human cytomegalovirus, UniProt Q68101, M460I); experiment: UL97 autophosphorylation protein kinase assay, M460I
T1 construct: PCR reaction to generate the full length UL97; honey bee melittin secretion signal (N); made in house; host or cells: Sf21 insect cells, recombinant baculovirus (pMelBac C)
T1 sequence (Q68101 1-707 M460I): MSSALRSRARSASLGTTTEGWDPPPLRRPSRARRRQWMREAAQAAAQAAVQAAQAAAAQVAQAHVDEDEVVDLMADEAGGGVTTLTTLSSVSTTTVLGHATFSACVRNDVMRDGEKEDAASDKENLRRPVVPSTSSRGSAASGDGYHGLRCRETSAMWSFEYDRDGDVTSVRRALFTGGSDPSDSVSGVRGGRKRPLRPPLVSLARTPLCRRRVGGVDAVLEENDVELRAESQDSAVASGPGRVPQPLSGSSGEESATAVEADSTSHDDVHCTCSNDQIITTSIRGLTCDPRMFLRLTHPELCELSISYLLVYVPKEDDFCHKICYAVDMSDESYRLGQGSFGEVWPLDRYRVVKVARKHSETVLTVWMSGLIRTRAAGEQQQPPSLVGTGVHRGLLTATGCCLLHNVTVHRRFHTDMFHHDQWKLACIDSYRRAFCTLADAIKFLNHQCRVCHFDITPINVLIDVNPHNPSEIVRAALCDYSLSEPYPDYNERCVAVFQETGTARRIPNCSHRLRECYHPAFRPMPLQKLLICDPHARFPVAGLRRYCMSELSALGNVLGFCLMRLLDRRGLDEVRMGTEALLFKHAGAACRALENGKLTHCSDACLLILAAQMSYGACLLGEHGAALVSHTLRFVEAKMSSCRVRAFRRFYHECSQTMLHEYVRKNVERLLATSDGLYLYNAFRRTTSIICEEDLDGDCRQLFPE
Protocol: (§1) Analysis of the autophosphorylation of wild type and mutant UL97 protein species was performed by a standard protein kinase assay as previously described (46). Briefly, purified protein was added to 2× protein kinase buffer (100 mM Tris HCl, pH9.0, 20 mM MgCl2, 10 μM ATP, 4 mM DTT, 2 M NaCl) and 370 KBq [γ^32P] ATP (Amersham), made up to 20 μl with SDW and incubated at 37°C. The reactions were terminated by the addition of 2× SDS sample buffer followed by boiling for 3 minutes. The amount of radiolabelled phosphate incorporated by autophosphorylation was analysed by SDS-PAGE and measured using the Biorad Mulitanalyst. The protein kinase assays were initially performed for 2 to 60 minutes to determine the maximum rate of phosphate incorporation, all assays were then performed at the maximum rate which equated to 5 minutes.
(§2) Enzyme kinetic analysis was performed on the purified wild type and mutant UL97 protein species as above using increasing concentrations of ATP (2 μM to 20 μM). The amount of incorporated radiolabelled phosphate was plotted against the concentration of ATP in a Lineweaver Burke plot to determine the Km for ATP for each UL97 species. […]

[2] = target: T2, UL97 H520Q (Human cytomegalovirus, UniProt Q68101, H520Q); experiment: UL97 autophosphorylation protein kinase assay, H520Q
T2 construct: PCR reaction to generate the full length UL97; honey bee melittin secretion signal (N); made in house; host or cells: Sf21 insect cells, recombinant baculovirus (pMelBac C)
T2 sequence (Q68101 1-707 H520Q): T1 sequence (Q68101 1-707 M460I) with I460M, H520Q
Protocol: as §1, §2

[3] = target: T3, UL97 L595F (Human cytomegalovirus, UniProt Q68101, L595F); experiment: UL97 autophosphorylation protein kinase assay, L595F
T3 construct: PCR reaction to generate the full length UL97; honey bee melittin secretion signal (N); made in house; host or cells: Sf21 insect cells, recombinant baculovirus (pMelBac C)
T3 sequence (Q68101 1-707 L595F): T1 sequence (Q68101 1-707 M460I) with I460M, L595F
Protocol: as §1, §2

SMILES | IC50 ([1]; M460I mutant) [nM] | IC50 ([2]; H520Q mutant) [nM] | IC50 ([3]; L595F mutant) [nM] | Km ([1]; M460I, read-out: Km for ATP) [µM] | Km ([2]; H520Q, read-out: Km for ATP) [µM] | Km ([3]; L595F, read-out: Km for ATP) [µM]
CC(C)Nc1nc2cc(Cl)c(Cl)cc2n1[C@H]1O[C@@H](CO)[C@H](O)[C@@H]1O [maribavir, 5,6-dichloro-2-(isopropylamino)-1-beta-L-ribofuranosyl-1H-benzimidazole] | 4.8 | 33 | 28 |  |  | 
Nc1ncnc2c1ncn2[C@@H]1O[C@H](COP(=O)(O)OP(=O)(O)OP(=O)(O)O)[C@@H](O)[C@H]1O [ATP] |  |  |  | 28 ± 2 | 25 ± 2.4 | 31 ± 4.5
